Test [1] addresses KRAS G12D/SOS/c-Raf complex (Homo sapiens (Human), UniProt P01116, G12D). The test can be described thus: KRAS G12D/SOS/c-Raf complex formation inhibitory activity (TR-FRET). In kind it is biochemical. The conditions noted are these: human recombinant proteins, 1 hour at room temperature, read-out: IC50, KRAS G12D/SOS/c-Raf complex formation inhibition. The procedure:
Using human recombinant KRAS G12D, SOS and c-Raf proteins, the inhibitory activity of subject compounds on the complex formation of the proteins was examined by a time-resolved fluorescence resonance energy transfer (TR-FRET) method.
Biotinylated AviTag-KRAS G12D (amino acid region of 1-185, GDP) (2.5 μL; 400 nM) and subject compounds dissolved in an assay buffer (50 mM HEPES, 150 mM NaCl, 5 mM MgCl2, 0.05% Tween 20, pH 7.0) were added to a 384-well plate (from Corning) in a liquid volume of 2.5 μL at 40,000 nM to 40 nM. Son of Sevenless (SOS) (amino acid region of 564-1049, 2.5 μL; 1.3 μM) and c-Raf (amino acid region of 51-131) GST (2.5 μL; 130 nM) containing GTP (from Sigma-Aldrich; 2 μM) were added to the plate, and the plate was allowed to stand for 1 hour at room temperature. Then, a mixture liquid (10 μL) of LANCE Ulight-anti-GST (from PerkinElmer; 120 nM) and LANCE Eu-W1024 labeled Streptoavidin (from PerkinElmer; 100 ng/mL) was added, and the 620-nm and 665-nm fluorescence intensities were measured using EnVision 2104 (from PerkinElmer) under the conditions of an excitation wavelength of 337 nm. After standardizing the values with the fluorescence intensity at a reference wavelength of 620 nm, the 50% inhibitory concentrations (IC50) were calculated by Sigmoid-Emax model nonlinear regression analysis with the signaling value in treatment with the solvent taken as 0% inhibition and with the signaling value without the addition of GTP taken as 100% inhibition.
On the technique in general: TR-FRET usually uses a lanthanide donor and a delayed reading to cut background.

In test [2] the test system is ERK phosphorylation (Thr202/Tyr204) in KRAS G12D mutant-positive pancreatic cancer line AsPC-1. The test can be described thus: ERK phosphorylation inhibitory activity in AsPC-1 (cell ELISA). In kind it is cell-based. The settings on record: Homo sapiens, ASPC1, 2 h, read-out: IC50, ERK phosphorylation inhibition. The procedure: The ERK phosphorylation inhibitory activities of subject compounds were evaluated by measuring phosphorylation of the 202th threonine (Thr202) and the 204th tyrosine (Tyr204) of ERK located downstream of the KRAS signal by cell ELISA.
AsPC-1 cells (ATCC, CRL-1682) were seeded at 36 μL/well on a 384-well plate (from Greiner bio-one) to give 2.0×10^4 cells per well. As for the cell culture conditions, RPMI-1640 medium (from Sigma-Aldrich) containing 10% fetal bovine serum (from GE Life Sciences) was used in the presence of 5% CO2 at 37° C.
The next day, the subject compounds (6 points having final concentrations in the range of 10 μM to 0.3 nM), trametinib (MEK inhibitor) of a final concentration of 1 μM as a positive control and DMSO, which was the solvent for the subject compounds, as a negative control were diluted 100-fold with a fresh medium and were each added at 4 μL per well, followed by culturing for 2 hours. After culturing, a 30% glyoxal solution (40% glyoxal [from Wako] was diluted with Phosphate Buffered Saline [PBS; from Wako) was quickly added at 30 μL per well, and the plate was allowed to stand for an hour at room temperature to thus immobilize the cells. Then, the plate was centrifuged (110× g, seven seconds, hereinafter centrifugation was performed under the same conditions unless otherwise specified) to remove the supernatant, and 0.1% Triton X-100 (from Amersham Biosciences)—containing PBS was added at 20 μL per well. After allowing the plate to stand for 10 minutes at room temperature, the supernatant was removed by centrifugation, and the same operation was further repeated. Next, 0.5% sodium dodecyl sulfate (SDS; from Invitrogen)-containing PBS was added at 20 μL per well. The plate was allowed to stand at room temperature for 30 minutes and was then centrifuged to remove the supernatant. Subsequently, a blocking solution (Intercept Blocking Buffer; from LI-COR Biosciences) was added at 20 μL per well, and the plate was allowed to stand for an hour at room temperature. The supernatant was removed by centrifugation, and an ERK (Thr202/Tyr204) phosphorylation antibody (Phospho-p44/42 MAPK (Erk 1/2) (Thr202/Tyr204) (D13.14.4E) XP Rabbit mAb; from Cell Signaling Technology) diluted 2,500-fold with the blocking solution was added at 10 μL per well as a primary antibody. The plate was allowed to stand at 4° C. overnight.
The next day, the plate was centrifuged to remove the supernatant, and 0.05% Tween-20-containing PBS (from Thermo Scientific; 20× PBS Tween-20 was diluted 20-fold with ion exchange water and used) was added at 20 μL per well. The supernatant was removed by centrifugation to thus wash each well. The washing was performed three times in total. After washing, an IRDye 800CW Goat anti-Rabbit IgG (from LI-COR Biosciences) diluted 1,000-fold with the blocking solution was added at 10 μL per well as a secondary antibody, and the plate was allowed to stand for an hour at room temperature. The plate was centrifuged to remove the supernatant, and each well was washed three times with 0.05% Tween-20-containing PBS in the same manner as after the primary antibody reaction. Centrifugation after the third washing was performed at 171×g for 17 seconds. After removing the supernatant, the plate was dried as it was with air at room temperature for three hours or more, and the 800-nm fluorescent signals were measured with Aerius (from LI-COR Biosciences).
With the signaling value at the time of addition of DMSO taken as 0% inhibition and with the signaling value at the time of addition of […] trametinib taken as 100% inhibition, the 50% inhibition values (IC50) were calculated by Sigmoid-Emax model nonlinear regression analysis.
For orientation: ELISA stands for enzyme-linked immunosorbent assay.

For test [3], the system named is KRAS G12D mutant-positive pancreatic cancer line AsPC-1. The test can be described thus: Non-anchorage-dependent cell growth inhibitory activity in AsPC-1 (spheroid 3D culture). In kind it is cell-based. The conditions noted are these: Homo sapiens, ASPC1, 144 h, read-out: IC50, non-anchorage-dependent cell growth inhibition. The procedure: The non-anchorage-dependent cell growth inhibitory activities of subject compounds were evaluated by spheroid 3D cell culture.
AsPC-1 cells were seeded at 36 μL/well on a low-cell-adhesive round bottom 384-well plate (Prime Surface: from Sumitomo Bakelite) to give 5×10^2 cells per well. The cell culture was performed under the same conditions as in the Test Example 2.
The next day, the subject compounds (6 points having final concentrations in the range of 10 μM to 3.0 nM) and DMSO, which was the solvent for the subject compounds, as a negative control were diluted 100-fold with a fresh medium and were each added at 4 μL per well. After culturing in the presence of 5% CO2 at 37° C. for six days, CellTiter Glo 2.0 (from Promega) was added at 20 μL per well. After stirring with a plate mixer (from FINEPCR) at normal temperature for an hour, the luminescent signals were measured with ARVO X3 (from PerkinElmer).
With the signaling value in treatment with DMSO taken as 0% inhibition and with the signaling value in the medium alone without cells taken as 100% inhibition, the 50% inhibition values (IC50) were calculated by Sigmoid-Emax model nonlinear regression analysis.

pIC50: −log10 of the molar value.

Chain of KRAS G12D/SOS/c-Raf complex (P01116 other isoform, or with tags, fused parts or gaps G12D): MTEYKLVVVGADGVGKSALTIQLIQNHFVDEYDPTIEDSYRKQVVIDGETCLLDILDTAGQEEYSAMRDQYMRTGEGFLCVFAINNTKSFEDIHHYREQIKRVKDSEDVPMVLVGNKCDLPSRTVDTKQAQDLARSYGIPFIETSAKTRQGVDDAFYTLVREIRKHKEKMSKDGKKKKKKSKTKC

Regarding `Cc1c(F)cc2[nH]ncc2c1-c1c(C2CC2)cc2c(N3C[C@@H]4C[C@H]3CN4)nc(OC3CCOCC3)nc2c1OCc1ccc(Cc2ncn(C3CC3)n2)cc1` [Example 14, 6-cyclopropyl-8-({4-[(1-cyclopropyl-1H-1,2,4-triazol-3-yl)methyl]phenyl}methoxy)-4-[(1 S,4S)-2,5-diazabicyclo[2.2.1]heptan-2-yl]-7-(6-fluoro-5-methyl-1H-indazol-4-yl)-2-[(oxan-4-yl)oxy]quinazoline], the figures for the pIC50 in test [1], in test [2] and in test [3] were 6.84, 7.38 and 6.81, respectively.

Regarding `Cc1c(F)cc2[nH]ncc2c1-c1c(C2CC2)cc2c(N3C[C@@H]4C[C@H]3CN4)nc(OC3CCOCC3)nc2c1OCc1ccc(Cc2nnn(C)n2)cc1` [Example 16, 6-cyclopropyl-4-[(1S,4S)-2,5-diazabicyclo[2.2.1]heptan-2-yl]-7-(6-fluoro-5-methyl-1H-indazol-4-yl)-8-({4-[(2-methyl-2H-tetrazol-5-yl)methyl]phenyl}methoxy)-2-[(oxan-4-yl)oxy]quinazoline], the pIC50 in test [1] was 6.65; in test [2], 7.03; in test [3] it was 6.67.

Source of the values: US20240150366A1, “4-AMINOQUINAZOLINE COMPOUND” (Astellas Pharma Inc., priority 2021, published 2024).
